Data taken from US20260250325A1, “Antiviral Polypeptide Membrane Fusion Inhibitor, and Preparation Method and Application Thereof” (priority 2025, published 2026).
pIC50: −log10 of the molar value. Where a SMILES comes first, the peptide text is derived from it. The star is where a group is joined. Succinyl(4-O-cholesteryl) = CC(C)CCC[C@@H](C)[C@H]1CC[C@H]2[C@@H]3CC=C4C[C@@H](OC(=O)CCC(=O)*)CC[C@]4(C)[C@H]3CC[C@]12C

How the values were obtained:
[1] = Cytotoxicity test in HEp-2 cells (CCK8 cell viability); format: cell-based; conditions: human; HEp-2 cells, CCK8, 1 day; read-out: CC50
Method in brief: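 Compound dilutions (final DMSO 0.5%) were applied for 1 day to HEp-2 cells plated at 30,000 per well the day before. CCK8 signal gave survival relative to cell and medium controls, and a four-parameter log(inhibitor)-response fit yielded CC50.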

RSV A long virus strain = format: cell-based; conditions: RSV A long virus strain, HEp-2 cells, plaque reduction, 1 day; read-out: IC50
Method in brief: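 Plaque reduction in HEp-2 cells: virus (100 PFU/well) and serially diluted compound (8 concentrations) mixed 1 h, adsorbed 2 h, then overlaid with 0.8% CMC medium plus compound for 1 day at 37 °C. Spots counted after anti-RSV immunostaining; IC50 from normalized inhibition, CC50 from viability data.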

Molecule | CC50 at 1 day [1] [nM] | pIC50 (RSV A long virus strain)
CC[C@H](C)[C@H](NC(=O)[C@H](CO)NC(=O)[C@H](C)NC(=O)[C@H](CC(=O)O)NC(=O)[C@H](Cc1ccccc1)NC(=O)[C@H](CCC(=O)O)NC(=O)[C@H](CC(=O)O)NC(=O)[C@H](Cc1c[nH]c2ccccc12)NC(C)=O)C(=O)N[C@@H](CO)C(=O)N[C@@H](CCC(N)=O)C(=O)N[C@H](C(=O)N[C@@H](CC(N)=O)C(=O)N[C@@H](CCC(=O)O)C(=O)N[C@@H](CCCCN)C(=O)N[C@H](C(=O)N[C@@H](CC(N)=O)C(=O)N[C@@H](CCC(N)=O)C(=O)N[C@@H](CO)C(=O)N[C@@H](CC(C)C)C(=O)N[C@@H](CCC(=O)O)C(=O)N[C@@H](CCC(=O)O)C(=O)N[C@H](C(=O)N[C@@H](CCCNC(=N)N)C(=O)N[C@@H](CCCCN)C(=O)N[C@@H](CO)C(=O)N[C@@H](CC(=O)O)C(=O)N[C@@H](CCC(=O)O)C(=O)N[C@@H](CC(C)C)C(=O)N[C@@H](CC(C)C)C(=O)N[C@@H](Cc1c[nH]cn1)C(=O)N[C@@H](CC(N)=O)C(=O)N[C@@H](CCC(=O)O)C(=O)N[C@@H](C)C(=O)N[C@@H](C)C(=O)N[C@@H](C)C(=O)N[C@@H](CCCCN)C(=O)N[C@@H](CCCCNC(=O)CCC(=O)O[C@H]1CC[C@@]2(C)C(=CC[C@H]3[C@@H]4CC[C@H]([C@H](C)CCCC(C)C)[C@@]4(C)CC[C@@H]32)C1)C(N)=O)[C@@H](C)CC)[C@@H](C)CC)C(C)C [Compound 45] (Ac-WDEFDASISQVNEKINQSLEEIRKSDELLHNEAAAKK(Succinyl(4-O-cholesteryl))-NH2) | 9940 | 7.91
CC[C@H](C)[C@H](NC(=O)[C@H](CCCCN)NC(=O)[C@H](CCCCN)NC(=O)[C@H](CC(C)C)NC(=O)[C@H](CO)NC(=O)[C@H](CCC(N)=O)NC(=O)[C@H](CC(N)=O)NC(=O)[C@@H](NC(=O)[C@H](CCCCN)NC(=O)[C@H](CCCCN)NC(=O)[C@H](CC(=O)O)NC(=O)[C@H](Cc1ccccc1)NC(=O)[C@H](CCC(=O)O)NC(=O)[C@@H](NC(=O)[C@H](CCCCN)NC(=O)[C@H](CCCCN)NC(=O)[C@H](CC(N)=O)NC(=O)[C@@H](NC(=O)[C@H](CC(C)C)NC(=O)[C@H](CCC(=O)O)NC(=O)[C@H](CC(=O)O)NC(=O)[C@H](CO)NC(C)=O)C(C)C)[C@@H](C)CC)[C@@H](C)CC)C(=O)N[C@@H](CCC(=O)O)C(=O)N[C@@H](CCC(=O)O)C(=O)N[C@@H](CO)C(=O)N[C@@H](CC(=O)O)C(=O)N[C@@H](CCCCN)C(=O)N[C@@H](CCCCN)C(=O)N[C@@H](CCCCN)C(=O)N[C@@H](CC(C)C)C(=O)N[C@@H](CCC(=O)O)C(=O)N[C@@H](C)C(=O)N[C@@H](C)C(=O)N[C@@H](C)C(=O)N[C@@H](CCCCN)C(=O)N[C@@H](CCCCN)C(N)=O [Compound 51] (Ac-SDELVNKKIEFDKKINQSLKKIEESDKKKLEAAAKK-NH2) | 3200 | 8.00
Ac-FDEEISQVNEKINQSLAFIRKSDELLHNVNAGKSTTEAAAKK(Succinyl(4-O-cholesteryl))-NH2 [Compound 26] | > 100000 | 7.89
Ac-LVKKIDEFDASISQVNEKINQSLEEIRKSDELLHNVGSGSGK(Succinyl(4-O-cholesteryl))-NH2 [Compound 29] | 15000 | 7.71
Ac-SLEQVNEKINQSLAFIRKSDEINQSDEEVNKSDELLEAAAKK-NH2 [Compound 50] | 32600 | 7.82
Ac-WDEFDASISQVNEKINQSLEEIRKSDELLHNVNAGLGSGSGK(Succinyl(4-O-cholesteryl))-NH2 [Compound 27] | 18400 | 7.59
Ac-WDEFDASISQVNEKINQSLEEIRKSDELLHNVNALEAAAKK(Succinyl(4-O-cholesteryl))-NH2 [Compound 38] | 10900 | 7.84
